Reference: patent US4725591A, “β-lactamase inhibitory composition” (Takeda Chemical Industries, Ltd., priority 1980, dated 1988)

Legend:
[1] = system: Citrobacter freundii GN 1706; experiment: Synergy with Cefotiam, agar dilution MIC; format: cell-based; settings: 18 hours; for MIC of Cefotiam with 1 μg/ml of Compound: inoculum 10^8 per ml; for MIC of Cefotiam alone: Trypticase soy agar, unit assumed
Description: (§1) The inoculum concentration is 10^8 per ml, and the medium is prepared by using Trypticase® soy agar (Becton Dickinson & Company, USA).

Proteus vulgaris GN 5297 = experiment: Synergy with Cefotiam, agar dilution MIC; format: cell-based; settings: 18 hours; for MIC of Cefotiam with 1 μg/ml of Compound: inoculum 10^8 per ml; for MIC of Cefotiam alone: Trypticase soy agar, unit assumed
Description: as §1

[2] = system: Proteus morganii IFO 3168; experiment: Synergy with Cefotiam, agar dilution MIC; format: cell-based; settings: 18 hours; for MIC of Cefotiam with 1 μg/ml of Compound: Table 3, 1 μg/ml test compound in agar, inoculum 10^8 per ml
Description: as §1

[3] = system: Enterobacter cloacae TN 587; experiment: Synergy with Cefotiam, agar dilution MIC; format: cell-based; settings: 18 hours; for MIC of Cefotiam with 1 μg/ml of Compound: Table 3, 1 μg/ml test compound in agar, inoculum 10^8 per ml
Description: as §1

[4] = system: Serratia marcescens IFO 12648; experiment: Synergy with Cefotiam, agar dilution MIC; format: cell-based; settings: 18 hours; for MIC of Cefotiam with 1 μg/ml of Compound: Table 3, 1 μg/ml test compound in agar, inoculum 10^8 per ml
Description: as §1

[5] = system: Citrobacter freundii IFO 12681; experiment: Synergy with Cefotiam, agar dilution MIC; format: cell-based; settings: 18 hours; for MIC of Cefotiam with 1 μg/ml of Compound: Table 3, 1 μg/ml test compound in agar, inoculum 10^8 per ml
Description: as §1

[6] = target: T1, β-lactamase produced by Enterobacter cloacae IFO 12937 (Enterobacter cloacae, UniProt P05364); experiment: Inhibitor concentration required to inhibit β-lactamase (cephalosporinase) activity by 50%, micro-iodometric method; format: biochemical; settings: Enterobacter cloacae IFO 12937 cephalosporinase; 0.05M phosphate buffer pH 7, 30° C., 10 minutes preincubation; cephalothin or ampicillin 0.1 mM; read-out: I50 (converted)
T1 construct: The β-lactamase produced by Enterobacter cloacae IFO 12937; endogenous in cells; host or cells: Enterobacter cloacae IFO 12937
Description: Determination of the inhibitor concentration required to inhibit the enzyme activity by 50%
The β-lactamase produced by Enterobacter cloacae IFO 12937 is used as a typical example of cephalosporinase, and that produced by Staphylococcus aureus 1840 as typical example of penicillinase. The β-lactamase in incubated is 0.05M phosphate buffer (pH 7) with an appropriate dilution of an inhibitor preparation at 30° C. for 10 minutes. Cephalothin or ampicillin is then added in an amount sufficient to produce a final concentration of 0.1 mM, and the enzymatic reaction is allowed to proceed for 10 minutes. The enzyme activity is determined by the micro-iodometric method [Journal of general Microbiology, vol. 33, page 121 (1963)]. Hereinafter, the inhibitor concentration required to inhibit the enzyme activity by 50% is expressed as I50. The I50 values for Enterobacter cloaceae are shown in Table 1, and the I50 values for Staphylococcus aureus in Table 2.

Proteus morganii TN 387 = experiment: Synergy with Cefotiam, agar dilution MIC; format: cell-based; settings: 18 hours; for MIC of Cefotiam with 1 μg/ml of Compound: Table 4, 1 μg/ml test compound in agar, inoculum 10^8 per ml
Description: as §1

[7] = system: Enterobacter cloacae IFO 12937; experiment: Synergy with Cefotiam, agar dilution MIC; format: cell-based; settings: 18 hours; for MIC of Cefotiam with 1 μg/ml of Compound: Table 4, 1 μg/ml test compound in agar, inoculum 10^8 per ml
Description: as §1

[8] = system: Citrobacter freundii TN 512; experiment: Synergy with Cefotiam, agar dilution MIC; format: cell-based; settings: 18 hours; for MIC of Cefotiam with 1 μg/ml of Compound: Table 4, 1 μg/ml test compound in agar, inoculum 10^8 per ml
Description: as §1

[9] = Table 3, 1 μg/ml test compound in agar
[10] = Table 4, inoculum 10^8 per ml, Trypticase soy agar, unit assumed
[11] = Table 3, inoculum 10^8 per ml, Trypticase soy agar, unit assumed
[12] = Table 4, 1 μg/ml test compound in agar

T1 sequence (P05364 21-381): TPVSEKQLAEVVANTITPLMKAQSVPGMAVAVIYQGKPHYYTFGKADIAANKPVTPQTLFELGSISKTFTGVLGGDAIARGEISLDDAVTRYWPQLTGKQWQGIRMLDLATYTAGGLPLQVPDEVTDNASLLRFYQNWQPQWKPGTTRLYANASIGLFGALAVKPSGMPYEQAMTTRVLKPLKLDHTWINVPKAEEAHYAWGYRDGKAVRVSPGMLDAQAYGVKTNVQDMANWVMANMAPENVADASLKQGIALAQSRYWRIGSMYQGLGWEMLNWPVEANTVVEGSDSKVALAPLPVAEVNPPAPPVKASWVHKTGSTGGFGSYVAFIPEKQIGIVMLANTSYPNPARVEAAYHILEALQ

| SMILES | IC50 [6] | MIC of Cefotiam with 1 μg/ml of Compound (Proteus morganii TN 387) | MIC of Cefotiam with 1 μg/ml of Compound [1, 12] | MIC of Cefotiam with 1 μg/ml of Compound [7] | MIC of Cefotiam with 1 μg/ml of Compound (Proteus vulgaris GN 5297; [12]) | MIC of Cefotiam with 1 μg/ml of Compound [8] | MIC of Cefotiam with 1 μg/ml of Compound [1, 9] | MIC of Cefotiam with 1 μg/ml of Compound (Proteus vulgaris GN 5297; [9]) | MIC of Cefotiam with 1 μg/ml of Compound [2] | MIC of Cefotiam with 1 μg/ml of Compound [3] | MIC of Cefotiam with 1 μg/ml of Compound [4] | MIC of Cefotiam with 1 μg/ml of Compound [5] | other results |
| --- | --- | --- | --- | --- | --- | --- | --- | --- | --- | --- | --- | --- | --- |
| CC(C)ON=C(C(=O)NC1CN(S(=O)(=O)[O-])C1=O)c1csc(NS(C)(=O)=O)n1.[Na+] (centres unmarked) | 4.4 nM | – | – | – | – | – | 100 | 100 | 25 | 12.5 | 200 | 12.5 | – |
| CC(C)ON=C(C(=O)NC1CN(S(=O)(=O)[O-])C1=O)c1csc(=N)n1S(C)(=O)=O.[Na+] (centres unmarked) | 4.19 nM | – | – | – | – | – | 50 | 100 | 50 | 3.13 | 200 | 6.25 | – |
| CN(C)CCn1nnnc1SCC1=C(C(=O)O)N2C(=O)[C@@H](NC(=O)Cc3csc(N)n3)[C@H]2SC1 [Cefotiam, reference compound] | – | – | – | – | – | – | – | – | – | – | – | – | MIC of Cefotiam alone (Proteus morganii TN 387; [10]): 200 µg/mL; MIC of Cefotiam alone ([1]; Table 3, inoculum 10^8 per ml): 200 µg/mL; MIC of Cefotiam alone ([1]; Table 4, inoculum 10^8 per ml): 50 µg/mL; MIC of Cefotiam alone [7, 10]: 100 µg/mL; MIC of Cefotiam alone (Proteus vulgaris GN 5297; Table 3, inoculum 10^8 per ml): 100 µg/mL; MIC of Cefotiam alone (Proteus vulgaris GN 5297; Table 4, inoculum 10^8 per ml): 400 µg/mL; MIC of Cefotiam alone [2, 11]: 400 µg/mL; MIC of Cefotiam alone [3, 11]: > 400 µg/mL; MIC of Cefotiam alone [4, 11]: > 400 µg/mL; MIC of Cefotiam alone [8, 10]: 625 µg/mL; MIC of Cefotiam alone [5, 11]: 200 µg/mL |
| CC(C)(C)OC(=O)C(C)(C)ON=C(C(=O)NC1CN(S(=O)(=O)O)C1=O)c1csc(NC(c2ccccc2)(c2ccccc2)c2ccccc2)n1 (centres unmarked) [Compound 27, Sodium 3-[2-(2-tritylaminothiaozl-4-yl)-2-[(1-tert-butoxycarbonyl-1-methylethoxy)imino]acetamido]-2-oxoazetidine-1-sulfonate] | 69.5 nM | < 0.2 | 3.13 | 0.39 | < 0.2 | 0.39 | – | – | – | – | – | – | – |
| CON=C(C(=O)NC1CN(S(=O)(=O)O)C1=O)c1csc(NS(=O)(=O)O)n1 (centres unmarked) [Compound 29] | 163 nM | 100 | 12.5 | 0.78 | 200 | 0.39 | – | – | – | – | – | – | – |

The next lines start with results.

| IC50 [6] | MIC of Cefotiam with 1 μg/ml of Compound (Proteus morganii TN 387) | MIC of Cefotiam with 1 μg/ml of Compound [1, 12] | MIC of Cefotiam with 1 μg/ml of Compound [7] | MIC of Cefotiam with 1 μg/ml of Compound (Proteus vulgaris GN 5297; [12]) | MIC of Cefotiam with 1 μg/ml of Compound [8] | SMILES | MIC of Cefotiam with 1 μg/ml of Compound [1, 9] | MIC of Cefotiam with 1 μg/ml of Compound (Proteus vulgaris GN 5297; [9]) | MIC of Cefotiam with 1 μg/ml of Compound [2] | MIC of Cefotiam with 1 μg/ml of Compound [3] | MIC of Cefotiam with 1 μg/ml of Compound [4] | MIC of Cefotiam with 1 μg/ml of Compound [5] | other results |
| --- | --- | --- | --- | --- | --- | --- | --- | --- | --- | --- | --- | --- | --- |
| 162 nM | < 0.2 | 3.13 | 0.39 | 100 | 0.39 | Cc1onc(-c2c(Cl)cccc2Cl)c1C(=O)NC1CN(S(=O)(=O)O)C1=O (centres unmarked) [Compound 9] | – | – | – | – | – | – | – |
| 4010 nM | 25 | 25 | 0.2 | 25 | < 0.2 | CON=C(C(=O)NC1CN(S(=O)(=O)O)C1=O)c1csc(N)n1 (centres unmarked) [Compound 12] | – | – | – | – | – | – | – |
| 2420 nM | – | – | – | – | – | CC(C)ON=C(C(=O)NC1CN(S(=O)(=O)O)C1=O)c1csc(NC(=O)CCl)n1 (centres unmarked) [Compound 28, Sodium 3-[2-(2-chloroacetamidothiazol-4-yl)-2-(1-methylethoxyimino)acetamido]-2-oxoazetidine-1-sulfonae] | 50 | 100 | 100 | 50 | 200 | 50 | – |
